{
  "source": "patent US20220133753A1",
  "about": "“COMPOSITIONS AND METHODS USEFUL FOR TREATING DISEASES CHARACTERIZED BY INSUFFICIENT PANTOTHENATE KINASE ACTIVITY” (Comet Therapeutics, Inc., priority 2016, published 2022)",
  "key": {"Drosophila S2 cells": {"system": "Drosophila S2 cells", "experiment": "HoPan treatment of Drosophila S2 cells in combination with CoA or 4′-phosphopantetheine", "type": "cell-based", "settings": "HoPan treated S2 cells", "method": "HoPan treatment of Drosophila S2 Cell in combination with CoA or 4′-phosphopantetheine treatment: Drosophila Schneider's S2 cells were maintained at standard conditions as explained above. Cells in the exponential phase of growth were used for all the experiments. Different indicated concentrations of CoA or 4′-phosphopantetheine (deuterium labelled PPanSH(D4) or unlabeled PPanSH) were added to S2 cells either in the presence or absence of 0.5 mM HoPan (Zhou Fang Pharm Chemical, China) for 48 h. Similarly, Drosophila S2 cells were treated with different concentrations of PPanSH(D4) at either 25° C. or 4° C. and cells were then harvested at various time points to access transport of PPanSH(D4). Stable isotope labelled PPanSH containing 4 deuterium atoms was purchased from Syncom (Groningen, The Netherlands) as a sodium salt (chemical structure is provided in FIG. 13A). As a read out cell count, intracellular total CoA and PPanSH levels (both labelled and unlabeled levels wherever appropriate) and histone acetylation levels were analyzed as explained below.\nDrosophila S2 Cell Immunofluorescence Staining: For immunofluorescence Drosophila S2 cells were seeded on Poly-L-Lysine coated (Sigma-Aldrich) glass microscope slides and allowed to settle for 45 min. Cells were fixed with 3.7% formaldehyde (Sigma Aldrich) for 20 min, washed briefly with PBS+0.1% Triton-X-100 (Sigma Aldrich) and permeabilized with PBS+0.2% Triton-X-100 for 20 min. The slides were incubated in primary antibody (rabbit anti-AcLys, Cell Signaling Cat No: 9441, 1:500) to visualize histone acetylation levels in PBS+0.1% Triton-X-100 overnight and after an additional washing step in PBS+0.1% Triton-X-100 they were incubated in secondary goat anti-rabbit-Alexa488 antibody (Molecular Probes) for two hours at room temperature (RT). F-actin was detected with Rhodamin-Phalloidin (20 U/ml)(Invitrogen) and DNA by staining with DAPI (0.2 ug/ml) (Thermo Scientific). Finally the samples were mounted in 80% glycerol and analyzed using a Leica fluorescence microscope with Leica software. Adobe Photoshop and Illustrator (Adobe Systems Incorporated, San Jose, Calif., USA) were used for image assembly."}, "[1]": {"system": "homozygous dPANK/fbl1 and dPANK/fblnull mutants", "experiment": "Drosophila dPANK/fbl mutants, lifespan and development with CoA or Vitamin B5 in the food", "type": "in vivo, Drosophila melanogaster", "settings": "CoA added to the food", "method": "Drosophila Maintenance and Crosses: Drosophila melanogaster stocks/crosses were raised on standard cornmeal agar fly food (containing water, agar 17 g/L, sugar 54 g/L, yeast extract 26 g/L and nipagin 1.3 g/L) at 25° C. The stocks were either obtained from the Bloomington Stock Centre (Indiana University, USA), VDRC (Vienna Drosophila RNAi Collection, Vienna, Austria) or from the Exelixis Collection (Harvard Medical School) and rebalanced to generate eGFP-positive balancers. The stocks used were: w1118; dPANK/fbl1 hypomorph5,6; dPANK/fblnull (y[1] w[*]; Mi{y[+mDint2]=MIC}fbl[MI04001]/TM3, Sb[1] Ser[1], Bloomington 36941); dPPCDC mutant (w[1118], PBac{w[+mC]=WH}Ppcdc[f00839]/CyO, Bloomington 18377); UAS-dPPCDCRNAi line (VDRC 104495); dCOASY mutant (PBac{RB}Ppat-Dpck[e00492], Exelixis). The UAS-RNAi constructs were expressed ubiquitously using the Actin-Gal4 drivers (y[1] w[*]; P{w[+mC]=Act5C-GAL4}25FO1/CyO, y[+], Bloomington 4414). […]\nDrosophila Life Span: One-day old adults of Drosophila homozygous mutants or RNAi-constructs expressing lines, were collected with appropriate controls and were kept on standard fly food at 25° C. with or without CoA or Vitamin B5 (Sigma) at necessary concentration (50 ul added on top of the fly food and dried). The flies were counted every 12-24 hrs and flipped to new fly food vials with or without CoA or Vitamin B5."}, "HEK293 cells": {"system": "HEK293 cells", "experiment": "HoPan treatment of mammalian HEK293 cells in combination with CoA or 4′-phosphopantetheine", "type": "cell-based, human", "settings": "HoPan treated HEK293 cells, compound added to the medium", "method": "HoPan treatment of mammalian HEK293 Cells in combination with CoA and 4′-phosphopantetheine treatment: HEK293 cells were maintained in dMEM (Invitrogen) supplemented with 10% fetal calf serum (Gibco) and antibiotics (penicillin/streptomycin, Invitrogen). For HoPan treatment, cells were cultured in custom made dMEM without vitamin B5 (Thermo Scientific) supplemented with dialyzed FCS (Thermo Scientific). CoA or PPanSH was added to HEK293 cells for the final concentration of 25 uM, either in the presence or absence of HoPan (0.5 mM) for 4 days, followed by analysis for phenotype and rescue efficiency of CoA and PPanSH.\nWestern blot analysis and Antibodies: For Western blot analysis, cells were collected and washed with phosphate buffer saline (PBS), followed by centrifugation. The cells were lysed and sonicated in 1X Laemmli Sample Buffer and boiled for 5 min with 5% β-mercaptoethanol (Sigma). Protein content was determined using DC protein assay (BioRad). Equal amounts of protein were loaded on a 10 or 12.5% SDS-PAGE gel, transferred onto PVDF membranes and blocked with 5% milk in PBS/0.1% Tween, followed by overnight incubation with primary antibodies. The primary antibodies used were: rabbit-anti dPANK/fbl, 1:4000 Eurogentec custom made as described previously5, mouse anti-tubulin (Sigma Aldrich Cat no: T5168, 1:5000), anti-acetyl-Histone3 (Active Motif Cat no: 39139, 1:2000), anti GAPDH (Fitzgerald Cat no: 10R-G109a, 1:10000), rabbit anti COASY (Abcam Cat no: AB129012, 1:1000). Appropriate HRP-conjugated secondary antibodies (Amersham) were used and detection was performed using enhanced chemi-luminescence (Pierce cat nog: 32106) and Amersham hyperfilm (GE Healthcare). Band intensities were quantified with Image-studio software."}, "[2]": {"system": "homozygous dCOASY mutants", "experiment": "Drosophila dCOASY mutants, larval development with CoA or Vitamin B5", "type": "in vivo, Drosophila melanogaster", "settings": "added to the food", "method": "Drosophila Maintenance and Crosses: Drosophila melanogaster stocks/crosses were raised on standard cornmeal agar fly food (containing water, agar 17 g/L, sugar 54 g/L, yeast extract 26 g/L and nipagin 1.3 g/L) at 25° C. The stocks were either obtained from the Bloomington Stock Centre (Indiana University, USA), VDRC (Vienna Drosophila RNAi Collection, Vienna, Austria) or from the Exelixis Collection (Harvard Medical School) and rebalanced to generate eGFP-positive balancers. The stocks used were: w1118; dPANK/fbl1 hypomorph5,6; dPANK/fblnull (y[1] w[*]; Mi{y[+mDint2]=MIC}fbl[MI04001]/TM3, Sb[1] Ser[1], Bloomington 36941); dPPCDC mutant (w[1118], PBac{w[+mC]=WH}Ppcdc[f00839]/CyO, Bloomington 18377); UAS-dPPCDCRNAi line (VDRC 104495); dCOASY mutant (PBac{RB}Ppat-Dpck[e00492], Exelixis). The UAS-RNAi constructs were expressed ubiquitously using the Actin-Gal4 drivers (y[1] w[*]; P{w[+mC]=Act5C-GAL4}25FO1/CyO, y[+], Bloomington 4414). Heterozygous flies/larvae for the mutants and the Actin-Gal4 driver crossed to isogenic w1118 flies (Actin-Gal4/+) were used as controls for the RNAi-constructs expressing flies.\nDrosophila Larval Collection and Larval Count Experiment: One week old flies (in the ratio 10 females and 5 males) were kept on 5 ml of standard fly food in a vial at 25° C. with or without various concentrations of CoA or Vitamin B5 (Sigma). […]"}},
  "data": [
    {"smiles": "CC(C)(COP(=O)(O)OP(=O)(O)OC[C@H]1O[C@@H](n2cnc3c(N)ncnc32)[C@H](O)[C@@H]1OP(=O)(O)O)[C@@H](O)C(=O)NCCC(=O)NCCS", "note": "[CoA, Coenzyme A]", "values": [
      {"measurement": "intracellular concentration of CoA", "setting": "Drosophila S2 cells; compound added to the culture medium, HPLC", "value": "restored the intracellular concentration of CoA"},
      {"measurement": "rescue of HoPan-induced decrease in cell count", "setting": "Drosophila S2 cells; compound added to the medium", "value": "rescued"},
      {"measurement": "rescue of HoPan-induced histone acetylation defect", "setting": "Drosophila S2 cells; compound added to the medium", "value": "rescued"},
      {"measurement": "intracellular levels of 4′-phosphopantetheine", "setting": "Drosophila S2 cells; external supplementation, HPLC", "value": "significantly increased"},
      {"measurement": "lifespan with CoA", "setting": "[1]; homozygous dPANK/fbl1 mutants, from 20 days without", "value": 40, "unit": "days"},
      {"measurement": "development with CoA", "setting": "[1]; homozygous dPANK/fblnull mutants", "value": "extended development from the L2 stage to early pupal development"},
      {"measurement": "rescue of HoPan-induced impaired histone acetylation", "setting": "HEK293 cells", "value": "rescued"},
      {"measurement": "rescue of HoPan-induced reduction in cell count", "setting": "HEK293 cells", "value": "rescued"},
      {"measurement": "intracellular CoA level", "setting": "HEK293 cells; HPLC", "value": "restored the intracellular concentration of CoA"},
      {"measurement": "rescue of the phenotype", "setting": "[2]", "value": "did not result in a significant rescue"}
    ]}
  ]
}
